Assay results taken from patent publication US20210130767A1, “Species of Genus Pholiota and Artificial Cultivation Method and Use Thereof” (Guangdong Institute of Microbiology (Guangdong Detection …, priority 2019, published 2021).

Test system: Staphylococcus aureus
Experiment: Determination of inhibition zone (agar well diffusion, coating / pour plate method)
Format: cell-based
Settings: 24 h, 37° C., 1 day, x ± s, n = 3, positive control ampicillin 5 μg/mL, read-out: inhibition zone diameter
Experimental: Bacterial medium: nutrient agar/broth medium;
Nutrition agar/broth medium: beef paste 3 g, peptone 10 g, sodium chloride 5 g, agar 15 g, add water to 1000 ml, and adjust the pH to 7.4 (nutrient broth without agar).
Preparation of ethyl acetate extract: using rice medium (formulated rice and water), the strain of the present invention was incubated and cultured for 45 days, ethyl acetate was added, ultrasonic extraction was performed twice, 40 minutes for each time, and the extract was combined. The solvent was recovered in a rotary evaporator, and steamed to about 1-2 mL of the extract, and transferred to a collection bottle, the ethyl acetate extract is obtained and placed in a vacuum desiccator. After the solvent was completely evaporated, it was transferred to a refrigerator at 4° C. for use, and was filtrated and sterilizd with the bacteria syringe and filter for use.
Positive control preparation: Ampicillin solution, diluted with sterile water to a concentration of 5 μg/mL of the control solution, UV sterilization for 30 min. […]
The counted bacteria solution was diluted to a final concentration of 10^5˜10^6 cfu/mL, and 200 μL of the prepared bacteria suspension was pipetted onto the plate and uniformly coated with a coater. […] The culture was allowed to stand for 1 day, and the size of inhibition zone was measured. […]

CC1(C)S[C@@H]2[C@H](NC(=O)[C@H](N)c3ccccc3)C(=O)N2[C@H]1C(=O)O [Positive control, Ampicillin]
zone of inhibition at 5 µg/mL: 19.8 ± 1.7 mm
